# Experimental data reported in article PMC11576293, “New series of 4,6-diaryl pyrimidines: facile synthesis and antiproliferative activity as dual EGFR/VEGFR-2 inhibitors” (Frontiers in Chemistry, 2024).
# How the values were obtained:
# [1] = tested on: four cancer cell lines (A-549, MCF-7, Panc-1, HT-29); assay: Antiproliferative assay, average over four cancer cell lines; assay type: cell-based; details: Homo sapiens; average of the four cancer cell lines; read-out: Average IC50 (GI50)
# Text: Table 2 presents the four cancer cell lines’ median inhibitory concentration (IC50) and GI50 (average IC50) values.
# (§1) The IC50 values were derived from dose-response tests. The reported data are derived from at least two independent studies, each comprising three replicates per concentration. See Supplementary Material A1 for more details.
# [2] = tested on: HT29; assay: NCI-60 single-dose screen; assay type: cell-based; details: Homo sapiens, HT-29, single dose 10 µM, '-' = no inhibition, read-out: % Growth Inhibition
# Method: (§2) The National Cancer Institute’s Developmental Therapeutic Program (www.dtp.nci.nih.gov) has tested compounds 9–29 (except compounds 21 and 22) against 60 cancer cell lines from nine types (leukemia, lung, colon, CNS, melanoma, ovarian, renal, prostate, and breast cancer) at a single dose (10 μM) ([El-Sherief et al., 2018]). […] The most sensitive cells included leukemia (SR, K-562, and MOLT-4), lung (NCI-H522, […], and EKVX), breast (MCF-7 and T-47D), colon (HCT-15 and HT-29), and ovarian (NCI/ADR-RES).
# (§3) The National Cancer Institute’s Developmental Therapeutic Program (www.dtp.nci.nih.gov) evaluated compounds 9–29 (excluding 21 and 22) against 60 cancer cell lines from nine categories (leukemia, lung, colon, CNS, melanoma, ovarian, renal, prostate, and breast cancer) at a single dose (10 μM) ([El-Sherief et al., 2018]). See Supplementary Material A1 for more details.
# [3] = tested on: OVCAR-8; assay: NCI-60 single-dose screen; assay type: cell-based; details: Homo sapiens, single dose 10 µM, '-' = no inhibition, read-out: % Growth Inhibition
# Method: as §2, §3
# [4] = tested on: BT-549; assay: NCI-60 single-dose screen; assay type: cell-based; details: Homo sapiens, single dose 10 µM, '-' = no inhibition, read-out: % Growth Inhibition
# Method: as §2, §3
# [5] = tested on: MOLT-4; assay: NCI-60 single-dose screen; assay type: cell-based; details: Homo sapiens, single dose 10 µM, '-' = no inhibition, read-out: % Growth Inhibition
# Method: as §2, §3
# [6] = Cell viability assay (MTT) on normal cells; assay type: cell-based; details: human, MCF-10A normal mammary gland epithelial cells, 4 days incubation
# Method: (§4) This experiment examines the impact of the newly developed compounds 9–29 on normal cell lines to assess their safety level. The vitality of the investigated compounds was assessed using the MCF-10 A cell line, a normal human mammary gland epithelial cell line. Following 4 days of incubation on MCF-10 A cells with each examined compound at a concentration of 50 μM, the vitality of the cells was assessed using the MTT test ([Mahmoud et al., 2022]; [Mekheimer et al., 2022]).
# as §4, with “The viability” for “The vitality”, “of 9–29” for “of the investigated compounds”, “2022]). Refer to Supplementary Material A1 for more details. […]” for “2022]).”
# 4.2. Biological evaluation
# 4.2.1. Cytotoxic activity using MTT Assay and evaluation of IC50
# MTT assay was carried out to study the effect of compounds on mammary epithelial cells (MCF-10A). The medium in which cells were propagated contained Dulbecco's modified Eagle's medium (DMEM)/ Ham's F-12 medium (1:1) supplemented with epidermal growth factor (20 ng/mL), hydrocortisone (500 ng/mL), insulin (10 μg/mL), 2 mM glutamine and 10% foetal calf serum.
# After every 2-3 days, the cells were passaged using trypsin ethylenediamine tetra acetic acid (EDTA). The cells were seeded at a density of 10^4 cells mL-1 in flat-bottomed culture plates containing 96 wells each. After 24 h, medium was removed from the plates and the compounds in (in 0.1% DMSO) were added (in 200 μL medium to yield a final concentration of 0.1% v/v) to the wells of plates. A single compound was designated with four wells followed by incubation of plates for 96h at 37°C. After incubation, medium was removed completely from the plates followed by addition of MTT (0.4 mg/mL in medium) to each well and subsequent incubation of plates for 3h. MTT (along with the medium) was removed and DMSO (150μL) was added to each well of the culture plates, followed by vertexing and subsequent measurement of absorbance (at 540 nm) using microplate reader. The data are shown as percentage inhibition of proliferation in comparison with controls containing 0.1% DMSO. […]
# [7] = tested on: Panc-1; assay: Antiproliferative assay (MTT); assay type: cell-based; details: Homo sapiens, Panc-1 (pancreatic), read-out: Antiproliferative activity IC50 ± SEM, Panc-1
# Text: (§5) The MTT test was employed for this investigation ([Hisham et al., 2022]; [El-Sherief et al., 2019]; [Ramadan et al., 2020]). Table 2 presents the four cancer cell lines’ median inhibitory concentration (IC50) and GI50 (average IC50) values.
# as §1, with “The MTT test was employed for this investigation ([Hisham et al., 2022]; [El-Sherief et al., 2019]; [Ramadan et al., 2020]). The IC50” for “The IC50”
# (§6) (in 0.1% DMSO) were added (in 200 μL medium to yield a final concentration of 0.1% v/v) to the wells of plates. A single compound was designated with four wells followed by incubation of plates for 96h at 37°C. After incubation, medium was removed completely from the plates followed by addition of MTT (0.4 mg/mL in medium) to each well and subsequent incubation of plates for 3h. MTT (along with the medium) was removed and DMSO (150μL) was added to each well of the culture plates, followed by vertexing and subsequent measurement of absorbance (at 540 nm) using microplate reader. The data are shown as percentage inhibition of proliferation in comparison with controls containing 0.1% DMSO.
# (§7) 4.2.1.2. Assay for antiproliferative effect […]
# (§8) (10%) and 1 µg/mL each of aprotinin, leupeptin and pepstatin for 120 min. The purification was performed either at 4 °C or on ice. To record autophosphorylation level, EGFR kinase assay was carried out on the basis of DELFIA/Time-Resolved Fluorometry. The compounds were first
# (§9) (1 picture or pasted object on this page, not shown here)
# [8] = tested on: HT-29; assay: Antiproliferative assay (MTT); assay type: cell-based; details: Homo sapiens, HT-29 (colon), read-out: Antiproliferative activity IC50 ± SEM, HT-29
# Text: as §5
# as §1, with “The MTT test was employed for this investigation ([Hisham et al., 2022]; [El-Sherief et al., 2019]; [Ramadan et al., 2020]). The IC50” for “The IC50”
# as §6, §7, §8, §9
# [9] = tested on: A-549; assay: Antiproliferative assay (MTT); assay type: cell-based; details: Homo sapiens, A549, A-549 (lung), read-out: Antiproliferative activity IC50 ± SEM, A-549
# Text: as §5
# as §1, with “The MTT test was employed for this investigation ([Hisham et al., 2022]; [El-Sherief et al., 2019]; [Ramadan et al., 2020]). The IC50” for “The IC50”
# as §6, §7, §8, §9
# [10] = tested on: MCF-7; assay: Antiproliferative assay (MTT); assay type: cell-based; details: Homo sapiens, MCF7, MCF-7 (breast), read-out: Antiproliferative activity IC50 ± SEM, MCF-7
# Text: as §5
# as §1, with “The MTT test was employed for this investigation ([Hisham et al., 2022]; [El-Sherief et al., 2019]; [Ramadan et al., 2020]). The IC50” for “The IC50”
# as §6, §7, §8, §9
Structure (SMILES),melting point,IC50 [1],inhibition at 10 µM [2],inhibition at 10 µM [3],inhibition at 10 µM [4],inhibition at 10 µM [5],"viability at 4 days, 50 µM [6]",IC50 [7],IC50 [8],IC50 [9],IC50 [10]
"COc1ccc(-c2cc(-c3cccc(OC)c3)nc(SC(C)C)n2)cc1 [Compound 19, 2-(Isopropylthio)-6-(3-methoxyphenyl)-4-(4-methoxyphenyl)pyrimidine]",235 to 237 °C,30 nM,32.5%,10.7%,6.85%,23.8%,90%,30 ± 2 nM,30 ± 2 nM,29 ± 2 nM,32 ± 3 nM
"C=CCSc1nc(-c2ccc(OC)cc2)cc(-c2cccc(OC)c2)n1 [Compound 20, 2-(Allylthio)-6-(3-methoxyphenyl)-4-(4-methoxyphenyl)pyrimidine]",258 to 260 °C,71 nM,8.08%,0.92%,< 0%,12.5%,90%,70 ± 6 nM,72 ± 4 nM,70 ± 6 nM,73 ± 6 nM
"COc1ccc(-c2cc(-c3ccc(Cl)cc3)nc(SC)n2)cc1OC [Compound 23, 4-(4-Chlorophenyl)-6-(3,4-dimethoxyphenyl)-2-(methylthio)pyrimidine]",228 to 229 °C,48 nM,26.4%,3.78%,4.8%,26.7%,90%,47 ± 4 nM,48 ± 4 nM,48 ± 4 nM,50 ± 4 nM
"CCSc1nc(-c2ccc(Cl)cc2)cc(-c2ccc(OC)c(OC)c2)n1 [Compound 24, 4-(4-Chlorophenyl)-2-(ethylthio)-6-(3,4-dimethoxyphenyl)pyrimidine]",229 to 231 °C,31 nM,28.3%,6.83%,< 0%,37%,91%,30 ± 3 nM,31 ± 3 nM,30 ± 3 nM,33 ± 3 nM
"CCCSc1nc(-c2ccc(Cl)cc2)cc(-c2ccc(OC)c(OC)c2)n1 [Compound 25, 4-(4-Chlorophenyl)-6-(3,4-dimethoxyphenyl)-2-(propylthio)pyrimidine]",217 to 219 °C,33 nM,14.7%,6.34%,< 0%,19.1%,91%,32 ± 3 nM,32 ± 3 nM,32 ± 3 nM,34 ± 3 nM
"COc1ccc(-c2cc(-c3ccc(Cl)cc3)nc(SC(C)C)n2)cc1OC [Compound 26, 4-(4-Chlorophenyl)-2-(isopropylthio)-6-(3,4-dimethoxyphenyl)pyrimidine]",233 to 253 °C,41 nM,13.1%,4.2%,< 0%,5.51%,90%,40 ± 3 nM,42 ± 3 nM,40 ± 3 nM,42 ± 3 nM
"C=CCSc1nc(-c2ccc(Cl)cc2)cc(-c2ccc(OC)c(OC)c2)n1 [Compound 27, 2-(Allylthio)-4-(4-chlorophenyl)-6-(3,4-dimethoxyphenyl)pyrimidine]",244 to 246 °C,59 nM,22.6%,7.89%,3.91%,28.5%,89%,58 ± 5 nM,60 ± 6 nM,56 ± 5 nM,60 ± 6 nM
"COc1ccc(-c2cc(-c3ccc(Cl)cc3)nc(SCc3ccccc3)n2)cc1OC [Compound 28, 2-(Benzylthio)-4-(4-chlorophenyl)-6-(3,4-dimethoxyphenyl)pyrimidine]",239 to 241 °C,41 nM,18.7%,8.97%,3.64%,32.8%,92%,40 ± 3 nM,41 ± 3 nM,39 ± 3 nM,43 ± 3 nM
"COc1ccc(CSc2nc(-c3ccc(Cl)cc3)cc(-c3ccc(OC)c(OC)c3)n2)cc1 [Compound 29, 2-(4-Methoxybenzylthio)-4-(4-chlorophenyl)-6-(3,4-dimethoxyphenyl)pyrimidine]",279 to 281 °C,24 nM,38%,19.4%,21.4%,46.5%,91%,23 ± 2 nM,24 ± 2 nM,23 ± 2 nM,25 ± 2 nM
